Measurements: patent US20050090522A1 (priority 2001, published 2005)
Like-named read-outs stand apart in the source and are kept apart here.

Legend:
[1] = Rat IV and PO pharmacokinetic studies; details: for CL, iv / clearance: iv dosing at 1 mg/kg; for clearance / AUC(0-t): male, Sprague-Dawley, in vivo; for clearance: iv, 1 mg/kg, CL; for AUC(0-t): po, 5 mg/kg
Protocol: Rat Pharmacokinetic Studies: For the IV and PO pharmacokinetic studies of compounds in rats, the compound was dissolved in PEG-400/ethanol (90/10) as a solution. Rat. Male Sprague-Dawley rats (300-350 g, Hilltop Lab Animals, Inc., Scottdale, Pa.) with cannulas implanted in the jugular vein were used. The rats were fasted overnight in the PO pharmacokinetic studies. Blood samples of 0.3 ml were collected from the jugular vein in EDTA-containing microtainer tubes (Becton Dickinson, Franklin Lakes, N. J.), and centrifuged to separate plasma. In the IV study, the test compound was delivered at 1 mg/kg as a bolus over 0.5 min (n=3). […] Quantitation of Compounds in Plasma. […] The resulting supernates were separated from the precipitated proteins by centrifugation for 10 minutes and transferred to autosampler vials. Samples were either prepared manually, or with the use of the Tomtec automated liquid handler. An aliquot of 5 μL was injected for analysis. The HPLC system consisted of two Shimadzu LC10AD pumps (Columbia, Md.), a Shimadzu SIL-HTC autosampler (Columbia, Md.), and a Hewlett Packard Series 1100 column compartment (Palo Alto, Calif.). The column was a YMC Pro C18 (2.0×50 mm, 3 μm particles, Waters Co., Milford, Mass.), maintained at 60° C. and a flow rate of 0.3 ml/min. The mobile phase consisted of 10 mM ammonium formate and 0.1% formic acid in water (A) and 100% 10 mM ammonium formate and 0.1% formic acid in methanol (B). […] The mobile phase was then returned to initial conditions and the column re-equilibrated for 1 minute. Total analysis time was 4 minutes. The HPLC was interfaced to a Micromass Quattro LC. Ultra high purity nitrogen was used as the nebulizing and desolvation gas at flow rates of 100 L/hr for nebulization and 1100 L/hr for desolvation. The desolvation temperature was 300° C. and the source temperature was 150° C. Data acquisition utilized selected reaction monitoring (SRM). Ions representing the (M+H)^+ species for the compound and the internal standard were selected in MS 1 and collisionally dissociated with argon at a pressure of 2×10^−3 torr to form specific product ions which were subsequently monitored by MS2.
For accuracy, the determined measure of viral inhibition is an EC50; but the minimum plasma concentrations which should be maintained in a patient is generally believed to be at least four or five fold higher. […] Lower is better. • 4) Estimating potential exposure in man by measuring parameters such as AUC and rate of clearance by oral and iv dosing in rats. High exposure and low clearance was desired.
The rat model is an initial model used to assess potential for exposure in man.

[2] = Metabolic stability in pooled human liver microsomes (HLM); details: 3 μM drug
Outline: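 Pooled human liver microsomes (0.9 mg/ml final) in 0.1 M potassium phosphate pH 7.4 with 0.033 mM MgCl2 and an NADPH-regenerating system. Compound pre-incubated 2 min, reaction started with cofactors, run 10 min at 37° C, quenched in acetonitrile and analysed by LC/MS.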

HIV-1 = HIV-1 single-round infectious luciferase reporter virus (pseudotype) assay in HeLa CD4 CCR5 cells; type: cell-based
Outline: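 HeLa CD4 CCR5 cells (5×10^4/well, DMEM + 10% FBS) were treated with compound (final <10 μM) and infected with single-round luciferase reporter virus made in 293 cells, at MOI ~0.01. Luciferase was read 72 h post infection. EC50 came from 10-concentration percent-inhibition curves fitted to a four-parameter logistic model.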

HeLa cells = assay: Cytotoxicity assay in HeLa cells (MTT dye reduction, CC50)
Outline: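 HeLa cells expressing CD4 and CCR5, grown in DMEM with 10% FBS, were used for cytotoxicity testing by MTT dye reduction; the text gives no further cytotoxicity conditions. The parallel antiviral assay exposed the same cells to compound at final <10 μM for 72 h.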

[3] = pooled human liver microsomes, Low/Intermediate/High
[4] = Human immunodeficiency virus 1, HeLa-CD4/CCR5, read-out: EC50 Group from TABLE 1, HeLa CD4 CCR5 cells, single-round infectious luciferase reporter virus
[5] = Human immunodeficiency virus 1, HeLa-CD4/CCR5, read-out: EC50 category, HIV-1 single-round reporter virus assay, category 1/2/3 per Table A1 key
[6] = cytotoxicity, Yes = CC50 above 100 uM, No = not
[7] = AUC 24 h, oral dosing at 5 mg/kg
[8] = Human immunodeficiency virus 1, HeLa-CD4/CCR5, read-out: EC50 Group from Table 1, Table 4, HeLa CD4 CCR5 cells, single-round luciferase reporter virus

Structure (SMILES)	HLM predicted human clearance class [2, 3]	EC50 (HIV-1; [4])	EC50 (HIV-1; [5])	CC50 > 100 uM (HeLa cells; [6])	clearance [1]	AUC(0-t) [1, 7]	further results
Cc1ccc(-c2nccc3c(C(=O)C(=O)N4CCN(C(=O)c5ccccc5)C[C@H]4C)c[nH]c23)cc1N [Example 3, 1-benzoyl-3-®-methyl-4-[(7-(3-amino-4-methylphenyl)-6-azaindol-3-yl)-oxoacetyl] piperazine]							CL, iv [1]: 1.3 ± 4.0 mL/min/kg; AUC 24 h ([1]; oral dosing at 5 mg/kg): 6300 ± 2700 ng·h/mL
COc1ncc(-c2nccc3c(C(=O)C(=O)N4CCN(C(=O)c5ccccc5)C[C@H]4C)c[nH]c23)c(OC)n1 [Example 12, 1-benzoyl-3-®-methyl-4-[(7-(2,4-dimethoxy-pyrimidin-5-yl)-6-azaindol-3-yl)-oxoacetyl]piperazine]							CL, iv [1]: 11.9 ± 1.8 mL/min/kg; AUC 24 h ([1]; oral dosing at 5 mg/kg): 4700 ± 1100 ng·h/mL
COc1cnc(-c2cnccn2)c2[nH]cc(C(=O)C(=O)N3CCN(C(=O)c4ccccn4)CC3)c12 [Example 102, 1-picolinoyl-4-[(4-methoxy-7-(pyrazin-2-yl)-6-azaindol-3-yl)-oxoacetyl]piperazine]	Low (0-0.100)	< 1 µM	0.0002 to 1 µM	Yes	12 ± 5.5 mL/min/kg	6900 ± 1300 ng·h/mL	
O=C(C(=O)N1CCN(C(=O)c2ccccc2)CC1)c1c[nH]c2c(-c3cnco3)ncc(F)c12 [Example 145]		< 1 µM	< 0.0002 µM			12000 ± 3800 ng·h/mL	CL, iv [1]: 1.4 ± 0.29 mL/min/kg
COc1cnc(-n2cncn2)c2[nH]cc(C(=O)C(=O)N3CCN(C(=O)c4ccccc4)CC3)c12 [Example 187, 1-benzoyl-4-[(4-methoxy-7-(1,2,4-triazol-1-yl)-6-azaindol-3-yl)-oxoacetyl]piperazine]	Low (0-0.100)	< 1 µM	< 0.0002 µM	Yes	2.4 ± 0.5 mL/min/kg	22400 ± 7200 ng·h/mL	
COc1cnc(-n2ccnn2)c2[nH]cc(C(=O)C(=O)N3CCN(C(=O)c4ccccc4)CC3)c12 [Example 188, 1-benzoyl-4-[(4-methoxy-7-(1,2,3-triazol-1-yl)-6-azaindol-3-yl)-oxoacetyl]piperazine]	Low (0-0.100)	< 1 µM	< 0.0002 µM	Yes	2.4 ± 0.08 mL/min/kg	20000 ± 4600 ng·h/mL	
COc1cnc(-n2ccc(C)n2)c2[nH]cc(C(=O)C(=O)N3CCN(C(=O)c4ccccc4)CC3)c12 [Example 190, 1-benzoyl-4-[(4-methoxy-7-(3-methyl-pyrazol-1-yl)-6-azaindol-3-yl)-oxoacetyl]piperazine]	Low (0-0.100)	< 1 µM	< 0.0002 µM	Yes	3.7 ± 1 mL/min/kg	7400 ± 3400 ng·h/mL	
COc1cnc(-n2ccnc2)c2[nH]cc(C(=O)C(=O)N3CCN(C(=O)c4ccccc4)CC3)c12 [Example 193, 1-benzoyl-4-[(4-methoxy-7-(1-imidazolyl)-6-azaindol-3-yl)-oxoacetyl]piperazine]	Low (0-0.100)	< 1 µM	< 0.0002 µM	No	4.5 ± 0.4 mL/min/kg	14000 ± 8000 ng·h/mL	
O=C(C(=O)N1CCN(C(=O)c2ccccc2)CC1)c1c[nH]c2c(-c3ncco3)ccnc12 [Example 204]	Low (0-0.100)		0.0002 to 1 µM	Yes	10 ± 1.3 mL/min/kg	12000 ± 1400 ng·h/mL	EC50 (HIV-1; [8]): < 1 µM
O=C(C(=O)N1CCN(C(=O)c2ccccc2)CC1)c1c[nH]c2c(-n3nccn3)ccnc12 [Example 205, 1-(4-benzoyl-piperazin-1-yl)-2-(7-[1,2,3]triazol-2-yl-1H-pyrrolo[3,2-b]pyridin-3-yl)-ethane-1,2-dione]	Low (0-0.100)		0.0002 to 1 µM	Yes	5.4 ± 0.4 mL/min/kg	9600 ± 1200 ng·h/mL	EC50 (HIV-1; [8]): < 1 µM
O=C(C(=O)N1CCN(C(=O)c2ccccc2)CC1)c1c[nH]c2c(-n3ccnn3)ncc(F)c12 [Example 216]	Low (0-0.100)	< 1 µM	< 0.0002 µM			32000 ± 12000 ng·h/mL	
COc1cnc(-c2ncon2)c2[nH]cc(C(=O)C(=O)N3CCN(C(=O)c4ccccc4)CC3)c12 [Example 226]	Low (0-0.100)	< 1 µM	< 0.0002 µM	Yes	24.5 ± 3 mL/min/kg	500 ± 130 ng·h/mL	
Cc1ncn(-c2ncc(F)c3c(C(=O)C(=O)N4CCN(C(=O)c5ccccc5)CC4)c[nH]c23)n1 [Example 306]	Low (0-0.100)	< 1 µM	< 0.0002 µM		0.39 ± 0.07 mL/min/kg	160000 ± 11000 ng·h/mL	
COc1cnc(-n2cnc(C)n2)c2[nH]cc(C(=O)C(=O)N3CCN(C(=O)c4ccccc4)CC3)c12 [Example 316]		< 1 µM	< 0.0002 µM				AUC(0-t) [1]: 52000 ± 12000 ng·h/mL
COc1cnc(-n2ncc(C)n2)c2[nH]cc(C(=O)C(=O)N3CCN(C(=O)c4ccccc4)[C@H](C)C3)c12 [Example 328]							HLM predicted human clearance class ([2]; 0.9 mg/ml microsomes, 37° C., 10 min): Low (0-0.100); EC50 (HIV-1; Human immunodeficiency virus 1, HeLa-CD4/CCR5, read-out: EC50 Group from Table 1, Table 2-1, HeLa CD4 CCR5 cells, single-round luciferase reporter virus): < 1 µM; EC50 (HIV-1; Human immunodeficiency virus 1, HeLa-CD4/CCR5, read-out: EC50 category, initial pseudotype assay, key in Table A1): < 0.0002 µM; CC50 > 100 uM (HeLa cells; HeLa cells, six days with drug, MTT): Yes
COc1cnc(-c2nc(C)n[nH]2)c2[nH]cc(C(=O)C(=O)N3CCN(C(=O)c4ccccc4)CC3)c12 [Example 342]	Low (0-0.100)	< 1 µM	< 0.0002 µM	Yes			
Cc1ccn(-c2ccnc3c(C(=O)C(=O)N4CCN(C(=O)c5ccccc5)[C@H](C)C4)c[nH]c23)n1 [Example 356]	Low (0-0.100)		0.0002 to 1 µM	Yes			EC50 (HIV-1; Human immunodeficiency virus 1, HeLa-CD4/CCR5, 72 h, read-out: EC50 Group from Table 1, HeLa CD4 CCR5 cells, luciferase reporter virus, harvested 72 h after infection): < 1 µM
